In article PMC8894198, “Biosynthetic Microcin J25 Exerts Strong Antibacterial, Anti-Inflammatory Activities, Low Cytotoxicity Without Increasing Drug-Resistance to Bacteria Target” (Frontiers in Immunology, 2022):
≈ marks a conversion by molar mass, not a printed value. Where “and” joins values, the source holds several entries; their conditions need not be identical. Equal values may be shown once. Where a SMILES comes first, the peptide text is derived from it. Bridges are numbered along the chain shown (N, C = ends).

Key:
plasmid DNA (pGEM-bGAL) = settings: 400 ng plasmid DNA, 1 h room temperature, 1% agarose gel
Experimental: Based on the previously worked out method ([27]), briefly, gel retardation experiments were carried out, in which 400 ng of plasmid DNA (pGEM-bGAL; Promega) was increasingly bound to […] of binding buffer in MccJ25 binding and incubated for 1 h at room temperature. Then, […] of local loading buffer in each sample was […], and a 12 μL aliquot was bound to a 1% agarose gel. Finally, 0.5× Tris-borate-EDTA buffer was used for electrophoresis.

Salmonella CATT LX2 = format: cell-based; settings: source mastitis pathogens
Experimental: (§1) The minimum inhibitory concentration (MIC) refers to the lowest concentration that can produce a significant hindrance to bacterial growth in a drug sensitivity test by adopting a broth dilution, with certain refinements and modifications based on the previous description ([25], [26]). In short, MccJ25 was dissolved in sterilized distilled water (SDW), serial 2-fold dilutions were prepared in Mueller-Hinton broth (MHB) through a 96-well microtiter plate, and the final concentration of MccJ25 was maintained in the range of 0.003125 to 256 μg/mL. Then, 2 μL of standard and clinically relevant overnight broth cultures of bacteria were inoculated into each well at a concentration of 5 × 10^6 CFU/mL. Microtiter plates were incubated at 37°C for one full day. Two groups were set up: positive (medium with inoculum) and negative (medium only) controls. The minimum bactericidal concentration (MBC) was measured in LB medium and refers to the first drug dilution value at which the initial bacterial concentration was reduced by 99.99%. The final analysis was determined by the results of three replicated and independent experiments. To further assess and clarify the antimicrobial activity of MccJ25, the protective ability against E. coli adhesion, live/dead assay, and killing curve were performed, the detailed methods were provided in Supplementary Materials .

E. coli LKFZ F2 = format: cell-based; settings: source pig stool
Experimental: as §1

E. coli BRO 134 = format: cell-based; settings: source broiler stool
Experimental: as §1

E. coli 987P = format: cell-based
Experimental: as §1

E. coli AZ1 = format: cell-based; settings: source pig tissue
Experimental: as §1

E. coli BRO 477 = format: cell-based; settings: source broiler stool
Experimental: as §1

E. coli CVCC1543 = format: cell-based
Experimental: as §1

Salmonella CATT W14 = format: cell-based; settings: source mastitis pathogens
Experimental: as §1

E. coli CVCC1522 = format: cell-based
Experimental: as §1

E. coli WWE921A-2 = format: cell-based; settings: source pig tissue
Experimental: as §1

Salmonella CATT LX9 = format: cell-based; settings: source mastitis pathogens
Experimental: as §1

E. coli SWI 437 = format: cell-based; settings: source pig stool
Experimental: as §1

E. coli CATT921A-1 = format: cell-based; settings: source mastitis pathogens
Experimental: as §1

Salmonella CATT LX1 = format: cell-based; settings: source mastitis pathogens
Experimental: as §1

E. coli K88 [1] = format: cell-based
Experimental: as §1

E. coli K88 [2] = test: Sytox Green influx (membrane permeabilization); format: cell-based; settings: 0.5 × to 5 × MIC, dose dependent; ex 485 nm, em 520 nm
Experimental: E. coli K88 cells were incubated at 37°C until growth reached the mid-log phase stage, and the cells were washed and resuspended in 10 mM NaH2PO4, pH 7.2 (2 × 10^7/mL). Cells were then incubated with […] Sytox Green for 15 min in a light-free environment.

[3] = LB medium, 99.99% reduction, three independent experiments
[4] = broth dilution in MHB, 37°C, three independent experiments
[5] = broth dilution in MHB, 37°C, one day, three independent experiments

SMILES: CC[C@H](C)[C@H](NC(=O)CNC(=O)[C@@H](NC(=O)[C@H](Cc1ccccc1)NC(=O)[C@H](Cc1ccc(O)cc1)NC(=O)[C@@H]1CCC(=O)NCC(=O)NCC(=O)N[C@@H](C)C(=O)NCC(=O)N[C@@H](Cc2c[nH]cn2)C(=O)N[C@@H](C(C)C)C(=O)N2CCC[C@H]2C(=O)N1)C(C)C)C(=O)NCC(=O)N[C@H](C(=O)N1CCC[C@H]1C(=O)N[C@H](C(=O)N[C@@H](CO)C(=O)N[C@@H](Cc1ccccc1)C(=O)N[C@@H](Cc1ccc(O)cc1)C(=O)NCC(=O)O)[C@@H](C)CC)[C@@H](C)O [MccJ25, microcin J25] (GGAGHVPEYFVGIGTPISFYG-OH; lactam N-8 (inferred); C-terminus assumed)
- weight ratio (MccJ25:DNA) at which DNA migration was slightly inhibited (plasmid DNA (pGEM-bGAL)): above 2.0
- MBC (Salmonella CATT LX2; [3]): 0.125 µg/mL (≈ 0.0593 µM)
- MIC (Salmonella CATT LX2; [4]): 0.030 µg/mL (≈ 0.0142 µM)
- MIC/MBC (Salmonella CATT LX2; ratio): 0.240
- MBC (E. coli LKFZ F2; [3]): 0.500 µg/mL (≈ 0.237 µM)
- MIC (E. coli LKFZ F2; [4]): 0.250 µg/mL (≈ 0.119 µM)
- MIC/MBC (E. coli LKFZ F2; ratio): 0.500
- MBC (E. coli BRO 134; [3]): 2.000 µg/mL (≈ 0.949 µM)
- MIC (E. coli BRO 134; [4]): 0.250 µg/mL (≈ 0.119 µM)
- MIC/MBC (E. coli BRO 134; ratio): 0.125
- MBC (E. coli 987P; [3]): 0.500 µg/mL (≈ 0.237 µM)
- MIC (E. coli 987P; [5]): 0.030 µg/mL (≈ 0.0142 µM)
- MIC/MBC (E. coli 987P; ratio): 0.060
- MBC (E. coli AZ1; [3]): 1.000 µg/mL (≈ 0.475 µM)
- MIC (E. coli AZ1; [4]): 0.500 µg/mL (≈ 0.237 µM)
- MIC/MBC (E. coli AZ1; ratio): 0.500
- MBC (E. coli BRO 477; [3]): 1.000 µg/mL (≈ 0.475 µM)
- MIC (E. coli BRO 477; [4]): 0.500 µg/mL (≈ 0.237 µM)
- MIC/MBC (E. coli BRO 477; ratio): 0.500
- MBC (E. coli CVCC1543; [3]): 0.250 µg/mL (≈ 0.119 µM)
- MIC (E. coli CVCC1543; [5]): 0.03 µg/mL and 0.030 µg/mL
- MIC/MBC (E. coli CVCC1543; ratio): 0.120
- MBC (Salmonella CATT W14; [3]): 0.250 µg/mL (≈ 0.119 µM)
- MIC (Salmonella CATT W14; [4]): 0.060 µg/mL (≈ 0.0285 µM)
- MIC/MBC (Salmonella CATT W14; ratio): 0.240
- MBC (E. coli CVCC1522; [3]): 0.500 µg/mL (≈ 0.237 µM)
- MIC (E. coli CVCC1522; [5]): 0.03 µg/mL and 0.030 µg/mL
- MIC/MBC (E. coli CVCC1522; ratio): 0.060
- MBC (E. coli WWE921A-2; [3]): 2.000 µg/mL (≈ 0.949 µM)
- MIC (E. coli WWE921A-2; [4]): 1.000 µg/mL (≈ 0.475 µM)
- MIC/MBC (E. coli WWE921A-2; ratio): 0.500
- MBC (Salmonella CATT LX9; [3]): 0.125 µg/mL (≈ 0.0593 µM)
- MIC (Salmonella CATT LX9; [4]): 0.060 µg/mL (≈ 0.0285 µM)
- MIC/MBC (Salmonella CATT LX9; ratio): 0.480
- MBC (E. coli SWI 437; [3]): 0.250 µg/mL (≈ 0.119 µM)
- MIC (E. coli SWI 437; [4]): 0.030 µg/mL (≈ 0.0142 µM)
- MIC/MBC (E. coli SWI 437; ratio): 0.120
- MBC (E. coli CATT921A-1; [3]): 2.000 µg/mL (≈ 0.949 µM)
- MIC (E. coli CATT921A-1; [4]): 0.250 µg/mL (≈ 0.119 µM)
- MIC/MBC (E. coli CATT921A-1; ratio): 0.125
- MBC (Salmonella CATT LX1; [3]): 0.250 µg/mL (≈ 0.119 µM)
- MIC (Salmonella CATT LX1; [4]): 0.060 µg/mL (≈ 0.0285 µM)
- MIC/MBC (Salmonella CATT LX1; ratio): 0.240
- MBC (E. coli K88 [1]; [3]): 0.500 µg/mL (≈ 0.237 µM)
- MIC (E. coli K88 [1]; [5]): 0.250 µg/mL (≈ 0.119 µM)
- MIC/MBC (E. coli K88 [1]; ratio): 0.500
- Sytox Green fluorescence / membrane integrity (E. coli K88 [2]): membrane integrity was significantly disrupted
